Measurements: patent US7524869B2, “Taxanes having a C10 ester substituent” (Florida State University Research Foundation, Inc., priority 2000, dated 2009)

tested on: not given; assay: not given; settings: not given

SMILES	melting point
CCC(=O)O[C@H]1C(=O)[C@@]2(C)C([C@H](OC(=O)c3ccccc3)[C@]3(O)C[C@H](OC(=O)[C@H](O)[C@@H](NC(=O)c4ccccc4)c4cccs4)C(C)=C1C3(C)C)[C@]1(OC(C)=O)CO[C@@H]1C[C@@H]2O (stereo partly drawn) [Compound 0687, 3′-Desphenyl-3′-(2-thienyl)-10-propionyl-10-deacetyl taxol]	154 to 155 °C

tested on: HCT116; assay: In vitro cytotoxicity measured by the cell colony formation assay; type: cell-based; settings: HCT116 cells, 72 h drug incubation, colonies counted after 7 days; ID50 = drug concentration producing 50% inhibition of colony formation; read-out: IN VITRO ID 50 (nm) HCT116

SMILES	IC50
CC(=O)OC12COC1CC(O)C1(C)C(=O)C(OC(=O)c3ccco3)C3=C(C)C(OC(=O)C(O)C(C=C(C)C)NC(=O)OC(C)(C)C)CC(O)(C(OC(=O)c4ccccc4)C21)C3(C)C (stereo not drawn) [Compound 2101]	< 1 nM
CC(=O)O[C@@]12CO[C@@H]1C[C@H](O)[C@@]1(C)C(=O)[C@H](OC(=O)C=C(C)C)C3=C(C)[C@@H](OC(=O)[C@H](O)[C@@H](NC(=O)OC(C)(C)C)c4ccccc4)C[C@@](O)([C@@H](OC(=O)c4ccccc4)C12)C3(C)C (stereo partly drawn) [Compound 2520]	< 10 nM
CCCC(=O)OC1C(=O)C2(C)C(O)CC3OCC3(OC(C)=O)C2C(OC(=O)c2ccccc2)C2(O)CC(OC(=O)C(O)C(NC(=O)OC(C)(C)C)C(C)C)C(C)=C1C2(C)C (stereo not drawn) [Compound 1031]	< 10 nM
CC(=O)O[C@@]12CO[C@@H]1C[C@H](O)[C@@]1(C)C(=O)[C@H](OC(=O)C3CC3)C3=C(C)[C@@H](OC(=O)[C@H](O)[C@@H](NC(=O)OC(C)(C)C)c4ccsc4)C[C@@](O)([C@@H](OC(=O)c4ccccc4)C12)C3(C)C (stereo partly drawn) [Compound 2794]	< 1 nM
CCC(=O)O[C@H]1C(=O)[C@@]2(C)C([C@H](OC(=O)c3ccccc3)[C@]3(O)C[C@H](OC(=O)[C@H](O)[C@@H](NC(=O)c4cccnc4)c4cccs4)C(C)=C1C3(C)C)[C@]1(OC(C)=O)CO[C@@H]1C[C@@H]2O (stereo partly drawn) [Compound 4121]	< 10 nM
CCOC(=O)N[C@@H](c1cccs1)[C@@H](O)C(=O)O[C@H]1C[C@@]2(O)[C@@H](OC(=O)c3ccccc3)C3[C@](C)(C(=O)[C@H](OC(=O)CC)C(=C1C)C2(C)C)[C@@H](O)C[C@H]1OC[C@@]31OC(C)=O (stereo partly drawn) [Compound 3370]	< 1 nM
CC(=O)O[C@@]12CO[C@@H]1C[C@H](O)[C@@]1(C)C(=O)[C@H](OC(=O)C=C(C)C)C3=C(C)[C@@H](OC(=O)[C@H](O)[C@@H](NC(=O)OC(C)(C)C)c4ccsc4)C[C@@](O)([C@@H](OC(=O)c4ccccc4)C12)C3(C)C (stereo partly drawn) [Compound 2511]	< 1 nM
CCC(=O)O[C@H]1C(=O)[C@@]2(C)C([C@H](OC(=O)c3ccccc3)[C@]3(O)C[C@H](OC(=O)[C@H](O)[C@@H](NC(=O)c4ccccc4)c4ccsc4)C(C)=C1C3(C)C)[C@]1(OC(C)=O)CO[C@@H]1C[C@@H]2O (stereo partly drawn) [Compound 0691]	< 1 nM
CC(=O)OC12COC1CC(O)C1(C)C(=O)C(OC(=O)c3cccs3)C3=C(C)C(OC(=O)C(O)C(NC(=O)OC(C)(C)C)c4ccoc4)CC(O)(C(OC(=O)c4ccccc4)C21)C3(C)C (stereo not drawn) [Compound 1923]	< 1 nM
CC(=O)OC12COC1CC(O)C1(C)C(=O)C(OC(=O)c3cccs3)C3=C(C)C(OC(=O)C(O)C(NC(=O)OC(C)(C)C)C(C)C)CC(O)(C(OC(=O)c4ccccc4)C21)C3(C)C (stereo not drawn) [Compound 1964]	< 10 nM

same assay, conditions: Homo sapiens, HCT-116; read-out: IN VITRO ID 50 (nm) HCT116

SMILES	IC50
CCC(=O)O[C@H]1C(=O)[C@@]2(C)C([C@H](OC(=O)c3ccccc3)[C@]3(O)C[C@H](OC(=O)[C@H](O)[C@@H](NC(=O)c4ccccc4)c4cccs4)C(C)=C1C3(C)C)[C@]1(OC(C)=O)CO[C@@H]1C[C@@H]2O (stereo partly drawn) [Compound 0687, 3′-Desphenyl-3′-(2-thienyl)-10-propionyl-10-deacetyl taxol]	< 1 nM
